Activity calls are given as the source filed them. The calls are words filed in the database; no cut-off is given here.
Legend:
[1] = Stability of the compound assessed as intramolecular cyclization/decomposition measured over 12 months; format: physicochemical; settings: 8766 h
[2] = Stability of the compound in HCl-MeOH/HCl-1,4-dioxane/TFA-DCM assessed as release of gabapentin, O-nucleophile, 2-aza-spiro[4,5]decan-3-one; format: physicochemical; settings: buffer
[3] = Stability of the compound assessed as cyclization into tert-butyl 3-oxo-2-azaspiro[4.5]decane-2-carboxylate at room temperature measured over 12 months; format: physicochemical; settings: 8766 h
[4] = test system: Mus musculus; assay: Toxicity in ip dosed SKH1-hrhr mouse assessed as change in reward licking events measured up to 3 hrs; format: organism-based; settings: in vivo
[5] = test system: Mus musculus; assay: Toxicity in ip dosed SKH1-hrhr mouse assessed as mortality measured up to 3 hrs; format: organism-based; settings: in vivo
[6] = test system: Cynomolgus monkey; assay: Oral bioavailability in cynomolgus monkey assessed as gabapentin at 36 mg/kg; format: ADME, organism-based, Macaca fascicularis; settings: in vivo
[7] = Stability of the compound in HCl-MeOH/HCl-1,4-dioxane/TFA-DCM assessed as release of gabapentin, S-nucleophile, 2-aza-spiro[4,5]decan-3-one; format: physicochemical; settings: buffer
[8] = test system: Mus musculus; assay: Toxicity in ip dosed capasaicin-induced SKH1-hrhr mouse assessed as mortality measured up to 3 hrs; format: organism-based; settings: in vivo
[9] = test system: Mus musculus; assay: Antinociceptive activity in ip dosed capsaicin-induced SKH1-hrhr mouse assessed change in reward licking events measured 30 mins post injection; format: functional, organism-based
[10] = Toxicity in mouse; format: organism-based; settings: in vivo
[11] = Oral bioavailability in cynomolgus monkey at 39 mg/kg; format: ADME, organism-based, Macaca fascicularis; settings: in vivo

## C[C@H](NC(=O)OC(C)(C)C)C(=O)N[C@@H](Cc1ccccc1)C(=O)NCC1(CC(=O)O)CCCCC1
[1]
  Stability: Stable

## CC(C)[C@H]1CC[C@H](C)C[C@@H]1OC(=O)CC1(CNC(=O)OC(C)(C)C)CCCCC1
[2]
  Stability: Unstable
[3]
  Stability: Unstable

## CC(C)[C@H](N)C(=O)NCC1(CC(=O)O)CCCCC1
[1]
  Stability: Stable

## CC(C)[C@H](NC(=O)OCc1ccccc1)C(=O)NCC1(CC(=O)O)CCCCC1
[1]
  Stability: Stable

## CC(N)C(=O)NC(Cc1ccccc1)C(=O)NCC1(CC(=O)O)CCCCC1.Cl (racemic)
[1]
  Stability: Stable

## Cl.NCC1(CC(=O)NCc2ccccc2)CCCCC1
[4]
  Activity: Non-toxic
[5]
  Activity: Non-toxic

## CC(OC(=O)NCC1(CC(=O)O)CCCCC1)OC(=O)C(C)C (stereo not given) [GABAPENTIN ENACARBIL]
[6]
  F: 84%

## COC(=O)[C@H](CSC(=O)CC1(CNC(=O)OC(C)(C)C)CCCCC1)NC(=O)[C@H](Cc1ccccc1)NC(=O)OCc1ccccc1
[7]
  Stability: Unstable

## C[C@H](N)C(=O)NCC1(CC(=O)O)CCCCC1
[1]
  Stability: Stable
[4]
  Activity: Non-toxic
[8]
  Activity: Non-toxic
[9]
  Activity: Active
[5]
  Activity: Non-toxic

## C[C@H](NC(=O)CN)C(=O)NCCC(=O)NCC1(CC(=O)O)CCCCC1
[1]
  Stability: Stable

## NCC1(CC(=O)O)CCCCC1 [GABAPENTIN]
[10]
  LD50: > 8000 mg/kg
[4]
  Activity: Non-toxic
[11]
  bioavailability: 25%
[5]
  Activity: Non-toxic

## C[C@H](NC(=O)CNC(=O)OCc1ccccc1)C(=O)NCCC(=O)NCC1(CC(=O)O)CCCCC1
[1]
  Stability: Stable

## O=C1CC2(CCCCC2)CN1
[10]
  LD50: 300 mg/kg

## C[C@H](NC(=O)OCc1ccccc1)C(=O)NCC1(CC(=O)O)CCCCC1
[1]
  Stability: Stable

## CC(C)CCC[C@@H](C)[C@H]1CC[C@H]2[C@@H]3CC=C4C[C@@H](OC(=O)CC5(CNC(=O)OC(C)(C)C)CCCCC5)CC[C@]4(C)[C@H]3CC[C@]12C
[2]
  Stability: Unstable

## CC(C)(C)OC(=O)NCC1(CC(=O)Sc2ccccc2)CCCCC1
[7]
  Stability: Unstable
